Laboratory results reported in US9096544B2, “Therapeutic compounds” (Wayne State University, priority 2009, dated 2015).

Experiments:
FFMA-AML cells [1] = test: Test B: apoptosis of FFMA-AML cells (acridine orange/ethidium bromide, nuclear fragmentation); format: cell-based, human; conditions: for EC50: Homo sapiens, nuclear fragmentation, FIG. 2A/B (96 h), read-out: ED50 of apoptosis induction
Procedure: FIG. 2 illustrates apoptosis induction in FFMA-AML and TF(v-SRC) cells by 3-Cl-AHPC and compound 16. Cells were seeded at 1×10^4 cells/ml, grown for 24 h and then exposed to 1 μM compound 16 or 3-Cl-AHPC A) at various concentrations of the compound for 96 h and B) for increasing times of exposure. C) Induction of apoptosis by 3-Cl-AHPC, all-trans-retinoic acid, 9-cis-retinoic acid and TTNPB in FFMA-AML and TF(v-SRC) cells. The percentage of apoptotic cells was determined using acridine orange and ethidium bromide staining to determine nuclear fragmentation as described in the general biochemical and pharmacological materials and methods. The error bars represent the mean of three separate determinations +/− the standard deviation (SD).
FFMA-AML cells were obtained from a patient with a diagnosis of AML as indicated by the immunophenotyping described in Table 1. This patient was refractory to the chemotherapy regimens consisting of cytosine arabinoside given with daunomycin as well as high-dose cytosine arabinoside. Peripheral blood samples were obtained from the patient utilizing a Wayne State University Institutional Review Board approved protocol and the leukemic blasts were isolated utilizing Ficoll hypaque. […]
Apoptosis of cells was determined by (1) acridine orange and ethidium bromide-staining to assess cells with nuclear fragmentation and chromatin condensation as previously described (Farhana L. et al., Cancer Res. 2006; 65:4909-4917) and (2) flow cytometry assessing Annexin V-FITC binding together with propidium iodide staining (Annexin V-FITC apoptosis Detection kit 1, BD Biosciences, San Diego, Calif.). Data acquisition was done on a FACS Calibur flow cytometer (BD) and analyzed with CellQuest software. […]

FFMA-AML cells [2] = test: Test D: inhibition of FFMA-AML growth in NOD-SCID mice (survival); format: in vivo
Procedure: FIG. 6 illustrates 3-Cl-AHPC and compound 16 inhibition of FFMA-AML cell proliferation in NOD-SCID mice and prolongation of their survival. A) Sixteen NOD-SCID mice, which had been randomized into two groups of eight each, were injected through the tail vein with 1×10^6 FFMA-AML cells. Intravenous injection of vehicle or 3-Cl-AHPC (30 mg/kg) twice daily for 4 days was instituted 24 h later. B) An identical study was performed with the exception that 3-Cl-AHPC was administered interperitoneally. C) Twenty four NOD-SCID mice were randomized into three groups of eight. […] The mice were monitored for toxicity and survival.
Non-obese diabetic-severe combined immunodeficiency (NOD-SCID) and ICR-SCID mice were obtained from Jackson Laboratories (Bar Harbor, Me.) and Taconic Farms (Germantown, N.Y.), respectively. A) FFMA-AML and TF(v-SRC) systemic models: NOD-SCID and ICR-SCID mice (4 to 5 weeks old) were injected with either FFMA-AML or TF(v-SRC) cells intravenously. Treatment with either vehicle, 3-Cl-AHPC or compound 16 (the compound of Example 1) was instituted the following day. Once symptoms such as diarrhea, dehydration, weight loss, ascites, paralysis or general weakness became evident, mice were euthanized. B) TF(v-SRC) subcutaneous mouse model. ICR-SCID mice were trocared subcutaneously bilaterally with TF(v-SRC) tumor fragments. Animals with equal tumor weights determined as described previously (Zhang Y. et al., Blood. 2002; 100:2917-2925) were assigned to three experimental arms: 1) control (vehicle treated), 2) subcutaneously treated with compound 16, and 3) intravenously treated with compound 16. The percent increase in the host life-span (% ILS) of the FFMA-AML and TF(v-SRC) bearing mice was calculated by subtracting the […] divided by the median day of death of the AML-bearing vehicle treated mice. In order to determine the efficacy of the 3-Cl-AHPC and compound 16, survival distribution of the 3-Cl-AHPC or compound 16-treated (T) or vehicle (C) groups were compared using the log-rank test. Survival was characterized as the duration of the animal's life span 24 h after the initiation of the xenograft until an observed event (euthanasia or death). A p-value of less than 5% (p<0.05) was considered statistically significant.
The ability of 3-Cl-AHPC and compound 16 to inhibit the growth of FFMA-AML cells in NOD-SCID mice was determined. NOD-SCID mice randomly assigned to two groups of eight mice each were injected with 1 million cells through the tail vein. The mice then received either vehicle or 3-Cl-AHPC (30 mg/kg) given intravenously twice daily for 4 days. […]

| Compound | cells displaying apoptosis (FFMA-AML cells [1]; FIG. 2C, retinoid values over that noted with the vehicle) | EC50 (FFMA-AML cells [1]) | increase in the length of survival over vehicle (FFMA-AML cells [2]; 30 mg/kg intravenously twice daily for 4 days, p value 0.0001) | toxicity in treated mice (FFMA-AML cells [2]; 3-Cl-AHPC 30 mg/kg twice daily for 4 days) | increase in survival (ILS) (FFMA-AML cells [2]; 5.0 mg/kg or 7.5 mg/kg twice a day for 4 days, tail vein, p=0.0002) | toxicity in treated mice (FFMA-AML cells [2]; compound 16 5.0 or 7.5 mg/kg twice a day) |
| --- | --- | --- | --- | --- | --- | --- |
| O=C(O)C=Cc1ccc(-c2ccc(O)c(C34CC5CC(CC(C5)C3)C4)c2)c(Cl)c1 [Compound 3-Cl-AHPC, 4-[3-(1-adamantyl)-4-hydroxyphenyl]-3-chlorocinnamic acid, reference compound] | 80% | 370 nM | 25% | toxicity including weight loss and decreased physical activity |  |  |
| O=C(O)/C=C/c1cnc(-c2ccc(O)c(C34CC5CC(CC(C5)C3)C4)c2)nc1 [Compound 16, (E)-3-[2-(3-(1-Adamantyl)-4-hydroxyphenyl)-5-pyrimidinyl]-2-propenoic acid] |  | 320 nM |  |  | 26% | extremely well tolerated and no toxicity was noted |
